We go through 13 compounds from publication PMC4915154, “Development of background-free tame fluorescent probes for intracellular live cell imaging” (Nature Communications, 2016).

For series [1], the system named is U-2 OS and CHO cell lines. The series is described as follows: Cellular retention and efflux characteristics test (before/after washing imaging, retaining ratio RR). The class given is cell-based, human (U-2 OS), Chinese hamster (CHO). To be noted: 30 min; for Experimentally observed group: U-2 OS and CHO cell lines, probe 1 μM, imaged before and 10 min after washing; for Cellular retention after washing (probe signal): CHO and U-2 OS cells, 1 uM probe. An excerpt:
To expedite an efficient strategy for ‘tame' probe development, we set up a system to predict cellular properties of fluorescent probes via phenotypic high-throughput screening (HTS), cheminformatics and statistical analysis (Fig. 1a). As the first step, we conducted phenotypic HTS to investigate cell permeability and nonspecific binding properties of the probes in a training set. We tested about 2,085 probes consisted of a wide range photophysical properties from numerous fluorophore cores such as BODIPY[12][13][14][15], xanthone, rosamine, cyanine[19][20] and ACEMAN[21]. Their cellular influx and efflux profiles were examined in two types of mammalian cells, U-2 OS and CHO. These cell lines were chosen due to their flexibility in genetic manipulation, adaptability to various culture conditions and versatility in wide biomedical research such as gene expression, toxicity screening, recombinant protein and live cell imaging. Each of the probes was added into live cells and cell image was taken after 30 min by ImageXpress Micro cellular imaging system (Molecular Device). The cells were then washed with fresh growth media, and after another 10 min, a second image was taken to check the completeness of probe washing out of the cell. The first and second imaging facilitated influx (before washing, BW) and efflux (after washing, AW) measurements, respectively (Supplementary Fig. 1).
To measure the influx and efflux of the probes, an automated quantitative intensity-based image analysis was then performed by Multi-Wavelength Cell Scoring analysis using MetaXpress High Content Image software. Retaining ratio (RR, per cent ratio of the average intensity of AW image over BW image) was computed to classify probes into the three phenotypic groups. For each cell in the image, the nuclei and cell region were segmented to provide approximate cellular boundaries. Fluorescence intensity was then quantified on a cell-by-cell basis by the following steps: (i) selecting the image of interest, (2) specifying the width of the stained cell area, (3) adjusting the intensity above local background for detection specificity, and (4) calculating fluorescence intensity with specified reporting parameters. Average fluorescence intensity for each BW and AW images was calculated for each probes and cell lines, and was then used as input in RR calculation (Supplementary Figs 2 and 3).
U-2 OS, a human osteosarcoma cell line, and CHO, a Chinese hamster ovary cell line, (from ATCC) were cultured in Dulbecco's modified eagle's medium (DMEM) (Invitrogen, CA, USA) supplemented with fetal bovine serum (FBS) (10%) and penicillin–streptomycin (1%). Materials used in the cell culture were purchased from Invitrogen. U-2 OS and CHO cells were seeded onto 96-well plate in growth media at 37 °C in the presence of 5% CO2 and were then allowed to attach and grow to 70–80% confluence. Library probes were dissolved in dimethylsulfoxide (DMSO) to make the 1 mM solution, and stored in −20 °C. Before HTS experiment, the growth media was aspirated and replaced by 200 μl fresh growth media containing probes in final concentration of 1 μM and nuclei dye Hoechst 33342. Plates were incubated for 30 min at 37 °C then were imaged using ImageXpress Micro cellular imaging system (Molecular Device) with × 10 objective lens. Immediately after image acquisition, the cells were washed with fresh growth media, and transferred back to a 37 °C cell incubator for further incubation. After 10 min, cells were again imaged (AW image). The first imaging step allowed influx measurement of BW image , while the second imaging step allowed out-flux measurement of AW image. Images of two regions per well were acquired with DAPI, FITC, TRITC or Texas Red filter sets according to probes' excitation and emission wavelength. Experiment was performed in duplicate. Cellular retention and efflux characteristics test for other synthesized probes were also done by using the same protocol. […]

Series [2] concerns azide-tagged intracellular organelles in U-2 OS cells. The series is described as follows: Live cell SPAAC labelling of azide-tagged organelles (mitochondria, lysosome, golgi apparatus). The series is classed as cell-based, human. As to conditions: U-2 OS cells pre-treated with TPP-Az, Sphingo-Az or Morph-Az, 2 μM probe, 1 h, 37 °C. An excerpt: Next, we investigated intracellular imaging in live cells using CO-1. We synthesized various azide-bearing reporters: TPP-Az, a triphenylphosphonium analogue which accumulates in mitochondria; Sphingo-Az, a ceramide analogue to target golgi apparatus; and Morph-Az, an azide derivative with morpholine moiety as a directing group for lysosome (Fig. 3a). SPAAC covalent labelling reactions between CO-1 and all azide reporters in vitro were clean and rapid. We anticipated that the cell permeable CO-1 is capable of labelling any azide reporters effectively, regardless the reporters' cellular localization. We added 2 μM CO-1 to the growth media of U-2 OS cells pre-treated with TPP-Az, Sphingo-Az or Morph-Az separately. Confocal fluorescence images were then taken after probe washing.
Figure 3 Live cell imaging with CO-1. (a) Chemical structures and schematic illustration of the covalent labelling of azide-tagged organelles using CO-1 in live cells. (b) Fluorescence imaging of mitochondria, lysosome and golgi apparatus in U-2 OS cells labelled with CO-1. Cells pre-treated with TPP-Az, Morph-Az or Sphingo-Az were incubated with 2 μM CO-1 in growth media at 37 °C for 1 h and followed by counterstaining with organelle trackers. Scale bar, 15 μm. (c) Fluorescence imaging of histone H2B in live U-2 OS. U-2 OS cells were co-transfected with plasmids pIre-Azi3 and pmH2B-6-mKate2-16tag to incorporate UAA Azi into H2B-mKate2 at site 16. After Azi incorporation, cells were labelled with 10 μM CO-1 for 90 min at 37 °C. Cells were then washed and imaged. The mKate2 (red) signals were detected in cell nuclei only, and colocalized with the CO-1 (green) signals in the merged image. Scale bar, 5 μm.
U-2 OS cells were treated with 5 μM TPP-Az, in culture media for 2 h at 37 °C. After incubation, cells were washed and added with 2 μM CO-1 probe. Labelling was allowed to proceed for 1 h at 37 °C in the incubator chamber. […]
Fluorescence imaging of mitochondria, lysosome and golgi apparatus in U-2 OS cells labeled with CO-1H. […] In contrast to CO-1, high fluorescence background from CO-1H was observed. […]

The nature of series [3]: Spectroscopic properties (absorbance, emission, extinction coefficient, quantum yield). To be noted: 10 μM in DMSO. The series is classed as physicochemical. The method, then: Supplementary Table 9. Spectrocopic properties and purity table for CO-1 and CO-1H.
Calculated mass, experimental mass, absorbance maximum (λabs), fluorescent emission maximum (λem), extinction coefficient (ε), quantum yield (Φ), and purity. mass m/z λabs λem ε Purity […]
Absorbance and fluorescence emission data were recorded by a Synergy 4, Biotek Inc. fluorescent plate reader at 10 μM concentration in DMSO in 96-well plates. HRMS a: found mass (M-H), b: tetramethyl BODIPY was used as standard, c: purity data was calculated on the basis of the integration in HPLC trace at 254 nm.

Turning to `CCc1c(C)c2n(c1C)[B-](F)(F)[N+]1=CC=CC1=C2SC` [CS-3], in series [1], the Experimentally observed group entry is “L-group (Probes (FI(BW) >200) with rapid efflux were observed to have a RR of <5%, and thus were classified into L-group)”.
Same read-out and setting: then `Cc1cc(/C=C/c2ccc(B(O)O)cc2)n2c1C(c1ccc(N)cc1)=C1C=CC=[N+]1[B-]2(F)F` [BOR-1H], with “H-group (those with RR >5% were classified into H-group)”; and `CC(C)(C)NC1=C2C=CC=[N+]2[B-](F)(F)n2cccc21` [CS-101], with “L-group (Probes (FI(BW) >200) with rapid efflux were observed to have a RR of <5%, and thus were classified into L-group)”.
As to `CC1=[N+]2C(=C(N3CCNCC3)c3ccc(C)n3[B-]2(F)F)C=C1` [CS-42], the Experimentally observed group entry in series [1] is “L-group (Probes (FI(BW) >200) with rapid efflux were observed to have a RR of <5%, and thus were classified into L-group)”.
Still for that read-out and setting: then `CCOC(=O)CCNC1=C2C=CC(CC)=[N+]2[B-](F)(F)n2c(CC)ccc21` [CS-56], with “L-group (Probes (FI(BW) >200) with rapid efflux were observed to have a RR of <5%, and thus were classified into L-group)”.
On the same count and under the same terms, as for `NCCNC1=C2C=CC=[N+]2[B-](F)(F)n2cccc21` [CS-2], the entry is “L-group (Probes (FI(BW) >200) with rapid efflux were observed to have a RR of <5%, and thus were classified into L-group)”; as for `F[B-]1(F)n2cccc2C(N2CCOCCOCCOCC2)=C2C=CC=[N+]21` [CS-13], “L-group (Probes (FI(BW) >200) with rapid efflux were observed to have a RR of <5%, and thus were classified into L-group)”.
As for `Cc1cc(/C=C/c2ccc(B(O)O)cc2)n2c1C(CCC(=O)N1CCOCC1)=C1C=CC(CCC(=O)N(C)C)=[N+]1[B-]2(F)F` [BOR-1], in series [1], the “Cellular retention after washing (probe signal)” value is reported as “significantly decreased after washing”; the Experimentally observed group entry was “L-group (Probes (FI(BW) >200) with rapid efflux were observed to have a RR of <5%, and thus were classified into L-group)”.
Turning to `COC(=O)c1ccc(C2=C3C(C)=CC(C)=[N+]3[B-](F)(F)n3c(/C=C/c4ccc(B(O)O)cc4)cc(C)c32)cc1` [BOR-2H], in series [1], the Experimentally observed group result is “H-group (those with RR >5% were classified into H-group)”.
For `Cc1cc(C)n2c1C(CCC(=O)N1CCOCC1)=C1C=CC(CCC(=O)NCCC(=O)N3Cc4ccccc4C#Cc4ccccc43)=[N+]1[B-]2(F)F` [CO-1H], in series [1], the “Cellular retention after washing (probe signal)” value was “retained inside the cells” and the Experimentally observed group entry was “H-group (those with RR >5% were classified into H-group)”. Further, the “Fluorescence background after washing” value in series [2] is listed as “high-fluorescence background”. Besides, in series [3], the ε amounted to 83333 M⁻¹ cm⁻¹, the λabs was determined as 500 nm and the λem came out at 520 nm. The “QY (Φ)” value in series [3] (tetramethyl BODIPY as standard) is recorded as 0.83.
As for `F[B-]1(F)n2cccc2C(N2CCOCCOCCOCCOCC2)=C2C=CC=[N+]21` [CS-14], in series [1], the Experimentally observed group result was “N-group (Probes in which BW images having FI(BW) ≤200 were classified as N-group)”.
Turning to `CCc1c(C)c2n(c1C)[B-](F)(F)[N+]1=CC=CC1=C2` [CS-8], the Experimentally observed group entry in series [1] was “L-group (Probes (FI(BW) >200) with rapid efflux were observed to have a RR of <5%, and thus were classified into L-group)”.
Still for that read-out and setting: then `COC1=C2C=CC(C)=[N+]2[B-](F)(F)n2c(C)ccc21` [CS-11], with “L-group (Probes (FI(BW) >200) with rapid efflux were observed to have a RR of <5%, and thus were classified into L-group)”.
